Laboratory results taken from patent US6642250B2, “1,8-naphthyridin-2(1H)-one derivatives” (Grelan Pharmaceutical Co., Ltd., priority 1999, dated 2003).
Read-outs that look alike come from different tables or passages of the source.

How the values were obtained:
[1] = system: LPS-induced TNFα production in mouse peritoneal macrophages; test: Inhibition of TNF-α production in LPS-stimulated macrophages; format: cell-based; conditions: Peritoneal macrophage, LPS 0.1 μg/ml, 4 hours
Procedure: In order to measure inhibitory activity on LPS-induced TNFα production in mouse peritoneal macrophages according to Eur. J. Pharmacol., 230, 9-14 (1993), the following assay was employed. 1) Preparation of Mouse Peritoneal Macrophages Ten percent proteose peptone (2 ml/animal) was administered intraperitoneally to male C3H/HeN mice (6- to 8-week-old) for inducing peritoneal macrophages. Four days after the proteose peptone administration, mice were sacrificed by the dislocation of cervical vertebrate, bled with cutting of their carotid artery, douched intraperitoneally with ice-cooled RPMI 1640 (6 ml), massaged, and lavage fluids wherein peritoneal exudate cells suspended were harvested. The resulting cell suspension was centrifuged at 200×g, and obtained cell pellets were treated with a Tris-ammonium buffer for 1 minute to hemolyze erythrocyte contaminants. The resulting cells were washed twice with 10% FBS/RPMI 1640, resuspended, and seeded on 96-well plates (Sumitomo Bakelite, Japan) at 5×10^5 cells/0.2 ml/well. After pre-incubation for 2 hours in an atmosphere of 5% CO2/95% air, each well was rinsed 3 times with PBS(−) to remove non-adhesive cells. 2) Cell Treatment Each test compound was dissolved in DMSO, and then in 10% FBS/RPMI 1640 to make the final DMSO concentration 0.1%. The resultant test compound solution was used herein. After pre-incubation for 0.5 hr in the above test compound solution, an aliquot of macrophages prepared in the above (1) was admixed with LPS (E. coli serotype 0127: B8; Sigma) to adjust the final LPS concentration to 0.1 μg/ml. Four hours later, culture supernatants were harvested and stored at −80° C. Amounts of TNFα in the culture supernatants were measured with a mouse TNFα ELISA kit (Quantikine/trade name; R & D Systems) according to manuals attached to the kit. For control groups, an aliquot of macrophages prepared in the above (1) was admixed with LPS to adjust the final LPS concentration to 0.1 μg/ml and then treated in the same manner as aforementioned. The resultant samples were used in obtaining the concentration of each test compound required for 50% inhibition (IC50) to each control group.

[2] = target: T1, PDE II (Sus scrofa, UniProt F1SUV3); test: PDE inhibition, type II PDE (cAMP substrate, cGMP added); format: biochemical; conditions: PDE II from porcine hearts, cAMP 1 μM; read-out: Inhibition of PDE Isoenzymes (IC50) II
T1 sequence (F1SUV3 1-945): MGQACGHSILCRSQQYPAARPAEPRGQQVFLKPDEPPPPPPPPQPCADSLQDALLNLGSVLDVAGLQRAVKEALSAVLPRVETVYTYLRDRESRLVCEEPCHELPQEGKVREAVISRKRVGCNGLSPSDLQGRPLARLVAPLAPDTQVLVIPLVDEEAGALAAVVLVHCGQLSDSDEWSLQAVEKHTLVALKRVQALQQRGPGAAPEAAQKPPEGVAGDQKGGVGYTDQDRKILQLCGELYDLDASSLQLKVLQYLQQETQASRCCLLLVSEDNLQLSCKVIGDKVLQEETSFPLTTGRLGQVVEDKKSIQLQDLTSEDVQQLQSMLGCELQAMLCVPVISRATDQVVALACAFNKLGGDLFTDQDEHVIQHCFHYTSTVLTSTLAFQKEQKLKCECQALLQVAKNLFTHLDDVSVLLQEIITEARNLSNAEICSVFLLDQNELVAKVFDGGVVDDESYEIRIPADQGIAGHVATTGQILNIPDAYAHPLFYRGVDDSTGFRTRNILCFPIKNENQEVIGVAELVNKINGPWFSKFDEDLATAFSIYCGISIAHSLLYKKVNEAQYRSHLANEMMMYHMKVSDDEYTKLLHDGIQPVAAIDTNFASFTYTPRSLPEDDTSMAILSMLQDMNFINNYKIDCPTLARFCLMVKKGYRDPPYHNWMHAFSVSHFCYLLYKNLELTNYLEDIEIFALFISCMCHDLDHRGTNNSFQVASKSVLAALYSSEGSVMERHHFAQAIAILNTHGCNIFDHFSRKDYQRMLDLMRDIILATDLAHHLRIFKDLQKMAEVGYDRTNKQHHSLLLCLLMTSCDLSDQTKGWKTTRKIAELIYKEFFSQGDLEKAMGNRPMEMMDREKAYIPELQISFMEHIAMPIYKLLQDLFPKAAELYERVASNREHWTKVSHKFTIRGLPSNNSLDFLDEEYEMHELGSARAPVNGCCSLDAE
Procedure: The assays for PDE activity were conducted according to Nicholson et al. method (Br. J. Pharmacol., 97, 889 (1989)).
Among PDE isozymes, type I, II, III and IV PDEs as used herein were separated from porcine hearts by using an anion exchange chromatography. Type V PDE was also separated from porcine aortae with an anion exchange chromatography and used herein.
Each PDE isozyme was admixed with ethylene glycol (EG) to adjust the final EG concentration to 30%, then stored at −20° C. and diluted when used. The enzymatic activity for PDE I and V was measured using cGMP as a substrate while that for POE II, III and IV was measured using cAMP.
[^3H]-cAMP (962 GBq/mmol; Amersham, 25 μl (100,000 cpm)) or [^3H]-cGMP (962 GBq/mmol; Amersham, 25 μl (100,000 cpm)) was added together with each PDE isozyme (25 μl) to an incubation buffer solution with the composition given below to adjust the total volume to 250 μl. Each test compound was dissolved in DMSO to adjust the final concentration to 1% (2.5 μl/tube).
Incubation buffer solution (pH7.5):
Tris-HCl (50 mM), magnesium chloride (6 mM), dithiothreitol
(2.5 mM), 5-nucleotidase (4 μg/ml), bovine serum albumin
(0.23 mg/ml), and cAMP (1 μM) [or cGMP (1 μM)]
A mixture of the aforementioned test compound solution and the buffer solution was incubated at 30° C. for 20 minutes. The reaction was quenched by admixing with 1 ml of anion exchange resin slurry (AG1-X8, 200-400 meshes, chloride form; Bio-Rad) to absorb unreacted substrates.
After the reaction stopped, the mixture was centrifuged at 200×g for 10 minutes, and the resulting supernatant was collected with vials in 250 μl aliquots. To each vial was added 5 ml of ACS-II (scintillator, Amersham). The radioactivity was measured with a liquid scintillator counter for [^3H]-adenosine or [^3H]-guanosine and set as the PDE activity. The measurements were conducted under conditions wherein the enzymatic activity was elevated by adding calmodulin (20 U/ml; Amersham) and calcium chloride (0.1 mM) for PDE-I and cGMP (1 μM) for PDE II, respectively.
The % inhibition was calculated for test compounds, and IC50 (the concentration of each test compound required for 50% inhibition) was obtained by Probit method. The aforementioned rolipram ((−)-isomer, optical purity: 91% e.e.) known as the PDE IV inhibitor in the prior art was used for the reference compound in this assay.

[3] = read-out: IC50 for inhibition of TNF-α production
[4] = read-out: IC50 for inhibition of TNF-α production (molar)

Structure (SMILES) | IC50 [2] | IC50 [1, 3] | IC50 [1, 4]
COc1ccc(C2CNC(=O)C2)cc1OC1CCCC1 (single isomer, unassigned) [Rolipram, rolipram, reference compound] | > 100 µM | 0.37 mg/L | ~1.3 µM
O=c1c(CCc2ccncc2)cc2cccnc2n1-c1cccc([N+](=O)[O-])c1 [Example No. 6, 1-(3-Nitrophenyl)-3-[2-(pyridin-4-yl)ethyl]-1,8-naphthyridin-2(1H)-one] | > 100 µM | – | –
O=c1c(CCCc2ccncc2)cc2cccnc2n1-c1cccc([N+](=O)[O-])c1 [Example No. 8, 1-(3-Nitrophenyl)-3-[3-(pyridin-4-yl)propyl]-1,8-naphthyridin-2(1H)-one] | > 100 µM | 0.34 mg/L | ~0.88 µM
CSc1cccc(-n2c(=O)c(CCCc3ccncc3)cc3cccnc32)c1 [Example No. 10, 1-(3-Methylthiophenyl)-3-[3-(pyridin-4-yl)propyl]-1,8-naphthyridin-2(1H)-one] | 52 µM | – | –
O=c1c(CCCCc2cccnc2)cc2cccnc2n1-c1cccc([N+](=O)[O-])c1 [Example No. 14, 1-(3-Nitrophenyl)-3-[4-(pyridin-3-yl)butyl]-1,8-naphthyridin-2(1H)-one] | 85 µM | – | –
O=c1c(CCCCCc2cccnc2)cc2cccnc2n1-c1cccc([N+](=O)[O-])c1 [Example No. 16, 1-(3-Nitrophenyl)-3-[5-(pyridin-3-yl)pentyl]-1,8-naphthyridin-2(1H)-one] | 63 µM | – | –
O=c1c(CCCc2ccncc2)cc2cccnc2n1-c1cccnc1 [Example No. 23, 1-(Pyridin-3-yl)-3-[3-(pyridin-4-yl)propyl]-1,8-naphthyridin-2(1H)-one] | > 100 µM | – | –

Second part, led by results:

IC50 [2] | Structure (SMILES) | IC50 [1, 3] | IC50 [1, 4]
> 100 µM | O=c1c(Cc2cccnc2)cc2cccnc2n1-c1cccc([N+](=O)[O-])c1 [Example No. 2, 1-(3-Nitrophenyl)-3-(pyridin-3-ylmethyl)-1,8-naphthyridin-2(1H)-one] | – | –
> 100 µM | O=c1c(CCc2cccnc2)cc2cccnc2n1-c1cccc([N+](=O)[O-])c1 [Example No. 5, 1-(3-Nitrophenyl)-3-[2-(pyridin-3-yl)ethyl]-1,8-naphthyridin-2(1H)-one] | – | –
> 100 µM | O=c1c(CCCc2cccnc2)cc2cccnc2n1-c1cccc([N+](=O)[O-])c1 [Example No. 7, 1-(3-Nitrophenyl)-3-[3-(pyridin-3-yl)propyl]-1,8-naphthyridin-2(1H)-one] | – | –
